Data as given in patent US8445005B2, “Antiwrinkle agent, lipolysis promoter, external composition for skin and food and beverage composition” (Kao Corporation, priority 2004, dated 2013).

Tests used:
Mouse 3T3-L1 cells = experiment: Lipolysis promoting effect: glycerol release from mature adipocytes; type: cell-based; conditions: test concentration 0.10% by mass; 90 minutes; norepinephrine 3×10^−8 mol/L; control = 100
Description: Mouse 3T3-L1 cells purchased from Dainippon Pharmaceutical Co., Ltd. were cultured in a 24-well culture plate according to the method of […], et al. ([…]. et al., Biochim. Biophys. Acta., 1581: 36-48 (2002)) at 37° C. in a 5% (v/v) CO2 atmosphere, and these cells were used in the test as mature adipocytes. Test media were prepared by adding test samples at predetermined concentrations to DMEM medium containing bovine serum albumin and norepinephrine (final concentration: 3×10^-8 mol/L). The said mature adipocytes were cultured in the test media for 90 minutes to be reacted with the test samples. Following the reaction, the glycerol released into the media was quantified by […] using the F Kit Glycerol (Roche). The lipolysis promotion rate was calculated according to the equation below based on the quantified glycerol values to serve as an indicator of lipolysis promoting effect: Lipolysis promotion rate(%)=[A/B]×100 (wherein A represents the amount of glycerol with addition of test sample, and B represents the amount of glycerol of a control (without addition of test sample)). (Test Results) […] Zingerone and caffeine were used as comparative controls.

photoaged skin = experiment: Wrinkle ameliorative effect: wrinkle score in photo-aged hairless mice; type: in vivo; conditions: Results 1; 1.0% sample in 50% aqueous ethanol, 0.1 ml once a day, five times a week on dorsal skin; score 0-3; base only 2.65 ± 0.08; listed as Example 2
Description: Samples containing 1.0% each of the guinea ginger extract, paradol or acetylated guinea ginger extract obtained in Production Examples 1 to 3 were prepared, using a 50% aqueous ethanol solution for the base (Example 1, 2 or 3, respectively), and wrinkle ameliorative effects on photoaged skin were investigated using the test method described below. Hairless mice, 10 weeks old at the start of the test, were used in groups of 10 animals each. Photo-aging was induced by irradiating skin with UVA and UVB once a day, five times a week for eight weeks. The irradiated doses were 20, 25 and 30 J/cm^2 for UVA and 20, 30 and 40 mJ/cm^2 for UVB. The doses were elevated every week, and the skin was irradiated at the maximum doses after the third week. Wrinkle ameliorative effect was evaluated using a wrinkle score and a dermal collagen level. The wrinkle score was determined according to the method of Bissett, et al. (Photochem. Photobiol., 46: 367-378, 1987). Namely, the size and depth of wrinkles were comprehensively evaluated macroscopically, and evaluated according to one of four levels consisting of a score of 3 for “large, deep wrinkles able to be confirmed”, 2 for “wrinkles able to be confirmed”, 1 for “wrinkles unable to be confirmed” and 0 for “normal skin texture observed”. […] Wrinkle scores were then determined following completion of the final application. […]

Cn1c(=O)c2c(ncn2C)n(C)c1=O [Caffeine]
Lipolysis promotion rate (%) (mean ± SE) (Mouse 3T3-L1 cells): 234.93 ± 11.23%

CCCCCCCC(=O)CCc1ccc(O)c(OC)c1 [Paradol, 1-(4′-hydroxy-3′-methoxyphenyl)-3-decanone]
Wrinkle Score (mean ± SE) (photoaged skin): 2.40 ± 0.23
Lipolysis promotion rate (%) (mean ± SE) (Mouse 3T3-L1 cells): 554.68 ± 107.62%

COc1cc(CCC(C)=O)ccc1O [Zingerone]
Lipolysis promotion rate (%) (mean ± SE) (Mouse 3T3-L1 cells): 191.85 ± 69.83%
